From patent publication EP4603105A1, “PHARMACEUTICAL COMPOSITION CONTAINING CYCLIC COMPOUND HAVING SELECTIVE KRAS INHIBITORY EFFECT AGAINST HRAS AND NRAS” (CHUGAI SEIYAKU KABUSHIKI KAISHA, priority 2022, dated 2024)
pIC50: −log10 of the molar value. *1 amine or outer side, *2 acyl side, *3 side chain or, on linkers, in order; H or OH if unused. Where a SMILES comes first, the peptide text is derived from it. Bridges are numbered along the chain shown (N, C = ends). [ ]: non-standard residue; d: D form. The star is where a group is joined. hPhe(3-Cl-4-CF3) = N[C@@H](CCc1ccc(C(F)(F)F)c(Cl)c1)C(=O)O; NPrPhe(4-CF3) = CCCN[C@@H](Cc1ccc(C(F)(F)F)cc1)C(=O)O; X28 = Cc1ccc(C[C@@H](C(=O)[*:2])N(CC2CCCCC2)[*:1])cc1; 3Oxa8azabicyclo(3.2.1)octane = C1CC2COCC1N2*; NEtPhe(4-Me) = CCN[C@@H](Cc1ccc(C)cc1)C(=O)O; NMeGly(cPent) = CN[C@H](C(=O)O)C1CCCC1; Pro(4,4-F2) = O=C(O)[C@@H]1CC(F)(F)CN1; NMeD = CN[C@@H](CC(=O)O)C(=O)O; NMeL = CN[C@@H](CC(C)C)C(=O)O; NMeAbu = CC[C@H](NC)C(=O)O; Morpholide = C1CN(*)CCO1; NMeA = CN[C@@H](C)C(=O)O; Ac5c = NC1(C(=O)O)CCCC1; Aze = O=C(O)[C@@H]1CCN1; Sar = CNCC(=O)O

Columns and labels:
[1] = molecular target: HRAS wild-type protein (Homo sapiens, UniProt P01112); test: Binding to HRAS by surface plasmon resonance (SPR), KD and KD ratio to KRAS
Outline: (§1)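 Affinity is measured by surface plasmon resonance at 30°C against captured, GDP-loaded RAS carrying a biotinylated Avi tag. Compounds are titrated by single-cycle kinetics, and KD comes from a 1:1 fit.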

[2] = test system: human lung cancer strain NCI-H441; format: cell-based
Outline: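 Readout: […] after the ATP-based reagent. Compound: serial dilutions in dimethyl sulfoxide.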

[3] = molecular target: GDP-bound NRAS wild-type protein (Homo sapiens, UniProt P01111); test: Binding to NRAS by surface plasmon resonance (SPR), KD and KD ratio to KRAS
Outline: as §1

[4] = ratio of the KD value with respect to HRAS wild-type protein to the KD value with respect to KRAS
[5] = ratio of the KD value with respect to GDP-bound NRAS wild-type protein to the KD value with respect to KRAS
[6] = ratio of KD for HRAS wild-type protein to KD for KRAS
[7] = ratio of KD for GDP-bound NRAS wild-type protein to KD for KRAS
[8] = ratio of KD value for HRAS wild-type protein to KD value for KRAS (SPR)
[9] = ratio of KD value for GDP-bound NRAS wild-type protein to KD value for KRAS (SPR)

Sequence of GDP-bound NRAS wild-type protein (P01111 whole entry): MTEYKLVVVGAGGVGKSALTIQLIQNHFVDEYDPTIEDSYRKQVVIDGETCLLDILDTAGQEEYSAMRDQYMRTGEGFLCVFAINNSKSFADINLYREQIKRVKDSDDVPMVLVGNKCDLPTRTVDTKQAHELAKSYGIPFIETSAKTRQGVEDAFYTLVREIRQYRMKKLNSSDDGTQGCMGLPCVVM
Sequence of HRAS wild-type protein (P01112 whole entry): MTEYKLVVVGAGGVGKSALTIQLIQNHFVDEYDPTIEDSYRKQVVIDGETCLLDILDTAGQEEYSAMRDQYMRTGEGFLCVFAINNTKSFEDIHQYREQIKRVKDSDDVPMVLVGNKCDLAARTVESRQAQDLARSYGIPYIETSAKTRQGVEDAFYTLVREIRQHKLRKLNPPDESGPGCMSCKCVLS

| SMILES | HRAS /KRAS [1, 4] | pIC50 [2] | NRAS /KRAS [3, 5] | HRAS /KRAS [1, 6] | NRAS /KRAS [3, 7] | HRAS /KRAS [1, 8] | NRAS /KRAS [3, 9] |
| --- | --- | --- | --- | --- | --- | --- | --- |
| CCC[C@H]1C(=O)N[C@@H]([C@@H](C)CC)C(=O)N(C)CC(=O)N(C)[C@H]2C/C=C\CCN(C2=O)[C@@H](Cc2ccc(C(F)(F)F)cc2)C(=O)N(C)CC(=O)N[C@@H](CCc2ccc(C(F)(F)F)c(Cl)c2)C(=O)N2C[C@@H](C)C[C@H]2C(=O)NC2(CC(C)(C)C2)C(=O)N(C)[C@@H](C2CCCC2)C(=O)N(C)[C@H](C(=O)N(C)C)CC(=O)N1C [PP2270] | B (a compound having 3 or more and less than 10 is denoted as B) | 7.98 | B (a compound having 3 or more and less than 10 is denoted as B) | – | – | – | – |
| C#CC[C@H]1C(=O)N[C@@H]([C@@H](C)CC)C(=O)N(C)CC(=O)N(C)[C@H]2C/C=C\CCN(C2=O)[C@@H](Cc2ccc(C(F)(F)F)cc2)C(=O)N(C)CC(=O)N[C@@H](CCc2cc(F)c(C(F)(F)F)c(F)c2)C(=O)N2C[C@H](OCC)C[C@H]2C(=O)NC2(CC(C)(C)C2)C(=O)N(C)[C@@H](C2CCCC2)C(=O)N(C)[C@H](C(=O)N(C)CCC)CC(=O)N1C [PP2074] | A (a compound having 10 or more and less than 20 is denoted as A) | 8.23 | A (a compound having 10 or more and less than 20 is denoted as A) | – | – | – | – |
| CCC[C@H]1C(=O)N[C@@H]([C@@H](C)CC)C(=O)N(C2CC2)CC(=O)N(C)[C@H]2C/C=C\CCN(C2=O)[C@@H](Cc2ccc(C)cc2)C(=O)N(C)CC(=O)N[C@@H](CCc2ccc(C3CC3)c(OC)c2)C(=O)N2C[C@H](OCC)C[C@H]2C(=O)NC2(CC(C)(C)C2)C(=O)N(C)[C@@H](C2CCCC2)C(=O)N(C)[C@H](C(=O)N(C)C)CC(=O)N1C [PP2883] | – | 7.12 | – | A (a compound having 10 or more and less than 20 is denoted as A) | A (a compound having 10 or more and less than 20 is denoted as A) | – | – |
| CCC[C@H]1C(=O)N[C@@H](C2CCCC2)C(=O)N(C)CC(=O)N(C)[C@H]2C/C=C\CCN(C2=O)[C@@H](Cc2ccc(C(F)(F)F)cc2)C(=O)N(C)CC(=O)N[C@@H](CCc2ccc(C(F)(F)F)c(Cl)c2)C(=O)N2CC3(CC3)C[C@H]2C(=O)NC2(CC(C)(C)C2)C(=O)N(C)[C@@H](CC(C)(C)C)C(=O)N(C)[C@H](C(=O)N(C)C)CC(=O)N1C [PP2981] | – | 7.69 | – | A (a compound having 10 or more and less than 20 is denoted as A) | AA (a compound having 20 or more is denoted as AA) | – | – |
| CCO[C@@H]1C[C@H]2C(=O)NC3(CCC3)C(=O)N(C)[C@@H](C3CCCC3)C(=O)N(C)[C@H](C(=O)N3CCOCC3)CC(=O)N(C)[C@@H](CC)C(=O)N[C@@H]([C@@H](C)CC)C(=O)N(C)CC(=O)N(C)[C@H]3C[C@@H](C)CCN(C3=O)[C@@H](Cc3ccc(C(F)(F)F)cc3)C(=O)N(C)CC(=O)N[C@@H](CCc3cc(F)c(C(F)(F)F)c(F)c3)C(=O)N2C1 [PP1027] | – | 8.14 | – | B (a compound having 3 or more and less than 10 is denoted as B) | C (A compound having a KD ratio of 0.1 or more and less than 3 is denoted as C) | – | – |
| C#CC[C@H]1C(=O)N[C@@H]([C@@H](C)CC)C(=O)N(C)CC(=O)N(C)[C@H]2C/C=C\CCN(C2=O)[C@@H](Cc2ccc(C(F)(F)F)cc2)C(=O)N(C)CC(=O)N[C@@H](CCc2ccc(C(F)(F)F)c(OC)c2)C(=O)N2CCOC[C@H]2C(=O)NC2(CC(C)(C)C2)C(=O)N(C)[C@@H](C2CCCC2)C(=O)N(C)[C@H](C(=O)N(C)C)CC(=O)N1C [PP2905] | – | 7.45 | – | A (a compound having 10 or more and less than 20 is denoted as A) | AA (a compound having 20 or more is denoted as AA) | – | – |
| CCO[C@@H]1C[C@H]2C(=O)NC3(CCC3)C(=O)N(C)[C@@H](C3CCCC3)C(=O)N(C)[C@H](C(=O)N(C)C)CC(=O)N(C)[C@@H](CC(C)C)C(=O)N[C@@H]([C@@H](C)CC)C(=O)N3CC[C@H]3C(=O)N(C)[C@H]3CC(C)=CCN(C3=O)[C@@H](Cc3ccc(C(F)(F)F)cc3)C(=O)N(C)CC(=O)N[C@@H](CCc3cc(F)c(C(F)(F)F)c(F)c3)C(=O)N2C1 [PP1033] | – | 7.17 | – | C (A compound having a KD ratio of 0.1 or more and less than 3 is denoted as C) | C (A compound having a KD ratio of 0.1 or more and less than 3 is denoted as C) | – | – |
| CC[C@H](C)[C@@H]1NC(=O)[C@H](CC(C)C)N(C)C(=O)C[C@@H](C(=O)N2CCOCC2)N(C)C(=O)[C@H](C2CCCC2)N(C)C(=O)C2(CCCC2)NC(=O)[C@@H]2CCCN2C(=O)[C@H](CCc2ccc(C(F)(F)F)c(Cl)c2)NC(=O)CN(C)C(=O)[C@H](Cc2ccc(C)cc2)N(CC2CCCCC2)C(=O)[C@@H]2CCN2C(=O)[C@H](C)N(C)C1=O [PP0085] ([NMeL]I[NMeA][Aze][X28][Sar][hPhe(3-Cl-4-CF3)]P[Ac5c][NMeGly(cPent)][NMeD]-Morpholide; lactam N-11) | – | 6.96 | – | C (A compound having a KD ratio of 0.1 or more and less than 3 is denoted as C) | C (A compound having a KD ratio of 0.1 or more and less than 3 is denoted as C) | – | – |
| CC[C@H](C)[C@@H]1NC(=O)[C@H](CC(C)C)N(C)C(=O)C[C@@H](C(=O)N(C)C)N(C)C(=O)[C@H](C2CCCC2)N(C)C(=O)C2(CCC2)NC(=O)[C@@H]2CC(F)(F)CN2C(=O)[C@H](CCc2ccc(C(F)(F)F)c(Cl)c2)NC(=O)CN(C)C(=O)[C@H](Cc2ccc(F)cc2)N2CCCCC[C@@H](C2=O)N(C)C(=O)CN(C)C1=O [PP0973] | – | 7.94 | – | B (a compound having 3 or more and less than 10 is denoted as B) | B (a compound having 3 or more and less than 10 is denoted as B) | – | – |
| CCO[C@@H]1C[C@H]2C(=O)NC3(CCC3)C(=O)N(C)[C@@H](C3CCCC3)C(=O)N(C)[C@H](C(=O)N(C)C)CC(=O)N(C)[C@@H](CC3CCCCC3)C(=O)N[C@@H]([C@@H](C)CC)C(=O)N(C)CC(=O)N(C)[C@H]3C/C=C\CCN(C3=O)[C@@H](Cc3ccc(C(F)(F)F)cc3)C(=O)N(C)CC(=O)N[C@@H](CCc3cc(F)c(C(F)(F)F)c(F)c3)C(=O)N2C1 [PP1125] | – | 7.82 | – | A (a compound having 10 or more and less than 20 is denoted as A) | A (a compound having 10 or more and less than 20 is denoted as A) | – | – |
| CC[C@H](C)[C@@H]1NC(=O)[C@H](CC2CC2)N(C)C(=O)C[C@@H](C(=O)N(C)C)N(C)C(=O)[C@H](C2CCCC2)N(C)C(=O)C2(CC(C)(C)C2)NC(=O)[C@@H]2C[C@H](C)CN2C(=O)[C@H](CCc2ccc(C(F)(F)F)c(OC)c2)NC(=O)CN(C)C(=O)[C@H](Cc2ccc(C)cc2)N2CC/C=C\C[C@@H](C2=O)N(C)C(=O)CN(C)C1=O [PP1898] | B (a compound having 3 or more and less than 10 is denoted as B) | 8.20 | B (a compound having 3 or more and less than 10 is denoted as B) | – | – | – | – |
| CC[C@H](C)[C@@H]1NC(=O)[C@H](CC)N(C)C(=O)C[C@@H](C(=O)N(C)C)N(C)C(=O)[C@H](C2CCCC2)N(C)C(=O)C2(CCC2)N(C)C(=O)[C@@H]2CCCN2C(=O)[C@H](CCc2cc(F)c(C(F)(F)F)c(F)c2)NC(=O)CN(C)C(=O)[C@H](Cc2ccc(C(F)(F)F)cc2)N2CC/C=C\C[C@@H](C2=O)N(C)C(=O)CN(C)C1=O [PP1780] | – | 8.09 | – | – | – | A (a compound having 10 or more and less than 20 is denoted as A) | A (a compound having 10 or more and less than 20 is denoted as A) |
| CCCOC[C@H]1C(=O)N[C@@H]([C@@H](C)CC)C(=O)N(C)CC(=O)N(C)[C@H]2C/C=C\CCN(C2=O)[C@@H](Cc2ccc(C(F)(F)F)cc2)C(=O)N(C)CC(=O)N[C@@H](CCc2cc(F)c(C(F)(F)F)c(F)c2)C(=O)N2C[C@H](OCC)C[C@H]2C(=O)NC2(CCC2)C(=O)N(C)[C@@H](C2CCCC2)C(=O)N(C)[C@H](C(=O)N(C)CC)CC(=O)N1C [PP1569] | – | 8.55 | – | – | – | B (a compound having 3 or more and less than 10 is denoted as B) | A (a compound having 10 or more and less than 20 is denoted as A) |
| CCCN1C(=O)[C@@H]2CCN2C(=O)[C@H](C)N(C)C(=O)[C@H]([C@@H](C)CC)NC(=O)[C@H](CC)N(C)C(=O)C[C@@H](C(=O)N2CCOCC2)N(C)C(=O)[C@H](C2CCCC2)N(C)C(=O)C2(CCCC2)NC(=O)[C@@H]2CC(F)(F)CN2C(=O)[C@H](CCc2ccc(C(F)(F)F)c(Cl)c2)NC(=O)CN(C)C(=O)[C@@H]1Cc1ccc(C(F)(F)F)cc1 [PP0206] ([NMeAbu]I[NMeA][Aze][NPrPhe(4-CF3)][Sar][hPhe(3-Cl-4-CF3)][Pro(4,4-F2)][Ac5c][NMeGly(cPent)][NMeD]-Morpholide; lactam N-11) | – | 8.66 | – | B (a compound having 3 or more and less than 10 is denoted as B) | C (A compound having a KD ratio of 0.1 or more and less than 3 is denoted as C) | – | – |
| CC[C@H](C)[C@@H]1NC(=O)[C@H](CC(C)C)N(C)C(=O)C[C@@H](C(=O)N2C3CCC2COC3)N(C)C(=O)[C@H](C2CCCC2)N(C)C(=O)C2(CCCC2)NC(=O)[C@@H]2CCCN2C(=O)[C@H](CCc2ccc(C(F)(F)F)c(Cl)c2)NC(=O)CN(C)C(=O)[C@H](Cc2ccc(C)cc2)N(CC)C(=O)CN(C)C(=O)CN(C)C1=O [PP0051] ([NMeL]I[Sar][Sar][NEtPhe(4-Me)][Sar][hPhe(3-Cl-4-CF3)]P[Ac5c][NMeGly(cPent)][NMeD]-{3Oxa8azabicyclo(3.2.1)octane}; lactam N-11) | – | 7.66 | – | C (A compound having a KD ratio of 0.1 or more and less than 3 is denoted as C) | C (A compound having a KD ratio of 0.1 or more and less than 3 is denoted as C) | – | – |
